Measured values reported in patent US20080089910A1, “Attenuated Herpes Simplex Virus Type-2, Vectors Thereof and Immunogenic Compositions Thereof” (priority 2004, published 2008).

How the values were obtained:
Assay in all cases: Viral plaque reduction assay, sensitivity to acyclovir
Assay type in all cases: cell-based, herpes simplex virus type 2
UL24Δ = details: Human alphaherpesvirus 2; UL24Δ on Vero cells, plaques after 72 hours; read-out: IC50 (50% inhibitory concentration) of acyclovir
Description: (§1) Each of the viruses were plated on Vero cell monolayers in the presence of various concentrations (0-16 μM) of acyclovir. Plaques that formed after 72 hours post infection were counted and the data was used to generate the IC50 of ACV for each virus.
(§2) Plaque reduction assay. Plaque reduction assay was used as described previously (Visalli et al., 2003) with the following modifications. Vero cells were infected with approximately 50 to 100 PFU of virus per well. Acyclovir (ACV) was diluted to the desired concentrations in Dulbecco's Modified Eagle Medium (DMEM) and applied to uninfected Vero monolayers for a thirty minute pre-incubation before the addition of virus. Positive control wells received virus without ACV. Monolayers were incubated for three days at 37° C., fixed, and stained. Plaques were counted, and the data are presented as the mean of at least three independent assays.

HSV-2 186 = details: Human alphaherpesvirus 2; HSV-2 186 on Vero cells, plaques after 72 hours; read-out: IC50 (50% inhibitory concentration) of acyclovir
Description: as §1, §2

UL24R = details: Human alphaherpesvirus 2; UL24R on Vero cells, plaques after 72 hours; read-out: IC50 (50% inhibitory concentration) of acyclovir
Description: as §1, §2

Measured: IC50

Nc1nc2c(ncn2COCCO)c(=O)[nH]1 [acyclovir]
~3000 nM: all assays above
